Assay results taken from article PMC10667816, “A Cell‐Penetrant Peptide Disrupting the Transcription Factor CP2c Complexes Induces Cancer‐Specific Synthetic Lethality” (Advanced Science, 2023).
*1 amine or outer side, *2 acyl side, *3 side chain or, on linkers, in order; H or OH if unused. Where a SMILES comes first, the peptide text is derived from it. Side-chain parts run from the residue outwards. The star is where a group is joined. γGlu = O=C(O)[C@H](CCC(=O)[*:2])N[*:1]; Palmitoyl = CCCCCCCCCCCCCCCC(=O)*

Tests used:
ICR mice = test: Repeated toxicity test of ACP52CGK; format: in vivo, mouse; conditions: 100 mpk intravenously daily for 4 weeks, n = 6/group; brain, heart, liver
Protocol: To assess the toxicity of ACP52C, twelve 6‐weeks‐old ICR mice (six males and six females) were divided into three groups, each containing two mice: one group received a saline, another received 100 mg kg^−1 of ACP52C, and the third received 1000 mg kg^−1 of ACP52C. For each group, one mouse was intravenously injected once, and the other one was intravenously injected twice with a four‐day interval between injections. At the time of sacrifice, major organs were analyzed by H&E staining. To assess the repeated toxicity of ACP52CGK, twenty‐four 6‐weeks‐old ICR mice (twelve males and twelve females) were used, dividing them into two groups of six mice each: one group received saline, and the other received 100 mg kg^−1 of ACP52CGK. […] Body weight, water and feed consumption were measured every 3 days after injection. […] Major organs were weighed and analyzed by H&E staining. H&E‐stained tissue sections were analyzed and photographed, and the representative histological images were recorded. […]
Repeated toxicity test of ACP52CGK were analyzed in ICR mice by intravenous injection of 100 mpk of ACP52CGK daily for 4 weeks (n = 6/group). A-C) Body weight (A), water consumption (B), and food consumption (C) were measured once every 3 days after injection. D-F) Major organ weight (D), CBC (E), and blood chemistry (F) were measured after sacrifice. Data are expressed as means ± SD in (B-F). […]

[1] = test system: human stem cells (hMSCs and hESCs), mouse embryonic fibroblasts (MEFs), and human non‐transformed cell lines (BEAS‐2B and MCF10A); test: MTT growth inhibition in stem and non‐transformed cells; format: cell-based; conditions: concentration of 1 mM
Protocol: Various cell lines were treated with peptides, either alone or in combination with the CASP2 inhibitor (Ac‐VDVAD‐CHO; Enzo ALX‐260‐058‐M001) at various concentrations for 4 days. Cell viability was assessed on day 2 or day 4 using MTT (3‐(4,5‐dimethylthiazol‐2‐yl)‐2,5‐diphenyltetrazolium bromide; Sigma–Aldrich, M2128) assay. In brief, fresh cells were seeded in flat‐bottomed 96‐well tissue culture plates at appropriate concentrations for each cell line per well using complete culture medium. The cells were incubated in 100 µL of culture medium containing various concentration of chemicals or peptides at 37 °C for 0 to 96 h. A solution of MTT (5 mg mL^−1) was added to the culture medium, and the cells were further incubated at 37 °C for an additional 3 h. The MTT medium was then removed, and the formazan crystals were dissolved in DMSO (100 µL per well). The formazan concentration was measured spectrophotometrically at 490 nm using a Varioskan Flash Spectral Scanning Multimode Reader (Thermo Scientific Korea). Nonlinear regression curves for growth inhibition and GI50 values for each cell line were estimated from independent replicates using the Prism (version 6) software (GraphPad Software Inc.)

U343 glioma cells = test: U343 CDX mouse model; format: in vivo; conditions: intravenous injection every 2 or 3 days from day 14
Protocol: Animal experiments were conducted in accordance with ethical guidelines, and all protocols were approved by the Institutional Animal Care and Use Committee under Hanyang University (approval numbers, 2014‐0016A, 2018‐0049A, 2018‐0207A, and 2019‐0169A), Chung‐Ang University (approval number, 2015‐00022), Chungbuk University (approval number, CBNUA‐1072‐17‐02), and Konkuk University (approval number, KU17130). To establish xenograft mice models, Hep3B, A431, U343, and PC9 cells were subcutaneously injected into the flank of Balb/c nude mice. For the MDA‐MB‐231 (LM1) cell line, it was implanted into the mammary fat pad of immunodeficient mice (NPG mice). […] Tumor volume was calculated using the formula of length × width^2)/2. […] The in vivo administration amount was determined based on the concentration of ACP52C confirmed at the cellular level, which was 2 µM. […] For ACP52C derivatives, the amount was adjusted to ensure a similar molar quantity of peptide injection, taking their molecular weights into account. For instance, in the case of ACP52CGK, ≈1.67 times the quantity was used compared to ACP52C to achieve an equivalent molar quantity. […] Hematoxylin and eosin (H&E)‐stained tissue sections were analyzed and photographed, and the representative histological images were recorded. […]

[2] = test system: normal cells such as mesenchymal stem cells and embryonic stem cells; test: Cell death in normal cells; format: cell-based, human
Protocol: performance of FQI1. Two micromoles of each Pep #5-2C and FQI1 were added to the cell culture for 2 days. Fractions of benzidine-positive stained cells were counted in MEL cells (n > 100 cells/group) treated with HMBA for 2 days. Hba-a2 gene expression at mRNA and protein levels were estimated by RT-qPCR […]
and WB, respectively. […] ANOVA […]
similar performance of Pep #5 or Pep #5-2. DNA-pull down assays for the [C4] complex (B) and the CBP […]
complexes (C). […] Two-tailed […]
formation by itself, surpassing the performance of FQI1. Co-IP assays for the [C4] complex (D) and the […]
CBP complexes (E). […] Student’s […]
than FQI1. G) Cell growth inhibition plots and GI50 values of FQI1 and ACP52C in various cancer cell lines and normal cells over peptide dose. GI50 values estimated from two independent biological replicates. […]
hESCs were cultured on the Rhodamine -labeled MEF cells. Ten micromoles of each ACP52C and FQI1 were added to the cell culture for 3 days before capturing images of cultures.

Q: For `CCCCCCCCCCCCCCCC(=O)N[C@@H](CCC(=O)NCCCC[C@H](NC(=O)CNC(=O)CNC(=O)[C@@H]1CCCN1C(=O)[C@H](CCCNC(=N)N)NC(=O)[C@H](CCC(N)=O)NC(=O)[C@@H]1CCCN1C(=O)[C@H](Cc1ccc(O)cc1)NC(=O)[C@H](CC(N)=O)NC(C)=O)C(=O)NCC(=O)NCC(=O)N[C@@H](CS)C(=O)N[C@@H](CCCNC(=N)N)C(=O)NCC(=O)N[C@@H](CC(=O)O)C(=O)N[C@@H](CCCCN)C(=O)NCC(=O)N1CCC[C@H]1C(=O)N[C@@H](CC(=O)O)C(=O)N[C@@H](CS)C(N)=O)C(=O)O` [ACP52CGK] (Ac-NYPQRPGGK([γGlu-Palmitoyl])GGCRGDKGPDC-NH2), which “adverse effects in normal organs” value (ICR mice) is on record?
A: did not induce any adverse effects

Q: What does the source list for `CC(=O)N[C@@H](CC(N)=O)C(=O)N[C@@H](Cc1ccc(O)cc1)C(=O)N1CCC[C@H]1C(=O)N[C@@H](CCC(N)=O)C(=O)N[C@@H](CCCNC(=N)N)C(=O)N1CCC[C@H]1C(=O)N[C@@H](CS)C(=O)N[C@@H](CCCNC(=N)N)C(=O)NCC(=O)N[C@@H](CC(=O)O)C(=O)N[C@@H](CCCCN)C(=O)NCC(=O)N1CCC[C@H]1C(=O)N[C@@H](CC(=O)O)C(=O)N[C@@H](CS)C(N)=O` [ACP52C] (Ac-NYPQRPCRGDKGPDC-NH2)?
A: growth inhibition [1]: minimal to zero growth inhibition; tumor weight (U343 glioma cells): significantly reduced tumor weight

Q: `CCOc1ccccc1C1CC(=O)Nc2cc3c(cc21)OCO3` (stereo not shown) [FQI1, Factor Quinolinone Inhibitor 1, reference compound] was tested. Which “induction of cell death in normal cells” value [2] did it give?
A: potential to induce cell death
